One data set can be described thus: Stability against pH. The data set is classed as physicochemical. As to conditions: outside the stable pH range.
A short description of the next data set: Solubilities. It counts as physicochemical. As to conditions: for Solubilities: insoluble: insoluble solvents; for Solubilities: readily soluble: readily soluble solvents; for Solubilities: sparingly soluble: sparingly soluble solvents.
For data set [1], the system named is bacteria of the genus Pseudomonas. Kind of data set: Antimicrobial spectrum (general statement). It counts as cell-based. As for the experimental part:
(§1) Procedure I : Cultivated on heart infusion agar medium (Difco) at 37° C for 24 hours.

Another data set concerns Staphylococcus aureus. Kind of data set: Antimicrobial spectrum, minimal inhibitory concentration (Procedure I). As to conditions: Procedure I: heart infusion agar, 37° C, 24 hours. The data set is classed as cell-based. As for the experimental part: (§2) In the table, procedures I to III mean the following:
as §1

The next data set relates to Pseudomonas aeruginosa. The description is as above. It counts as cell-based. The conditions noted are these: Procedure I: heart infusion agar, 37° C, 24 hours. As for the experimental part: as §2, §1
A further data set deals with Klebsiella pneumoniae. The data set is described as above. It counts as cell-based. As to conditions: Procedure I: heart infusion agar, 37° C, 24 hours. How it is done:
as §2, §1

The next data set relates to Bacillus subtilis. The description is as above. It counts as cell-based. The conditions noted are these: Procedure I: heart infusion agar, 37° C, 24 hours. As for the experimental part: as §2, §1
For another data set, the system named is Escherichia coli. The description is as above. The conditions noted are these: Procedure I: heart infusion agar, 37° C, 24 hours. It counts as cell-based. How it is done: as §2, §1
The subject of another data set is Proteus mirabilis. Described as above. The data set is classed as cell-based. The conditions noted are these: Procedure I: heart infusion agar, 37° C, 24 hours. As for the experimental part:
as §2, §1

For the next data set, the system named is Proteus vulgaris. The data set is described as above. The data set is classed as cell-based. As to conditions: Procedure I: heart infusion agar, 37° C, 24 hours. As for the experimental part: as §2, §1
Data set [2] is described as follows: Toxicity (general statement).
Data set [3] deals with gram-positive and gram-negative bacteria. The data set is described as follows: Antimicrobial spectrum (general statement). The data set is classed as cell-based. How it is done: as §1
(§3) Procedure II : Cultivated on heart infusion agar medium with 1 % added glycerin at 37° C for 48 hours.
(§4) Procedure III : Cultivated on glucose bouillon agar medium at 28° C for 96 hours.

The test system of the next data set is Candida albicans. The data set is described as follows: Antimicrobial spectrum, minimal inhibitory concentration (Procedure III). It counts as cell-based. The conditions noted are these: Procedure III: glucose bouillon agar, 28° C, 96 hours. How it is done:
as §2, §4

For a further data set, the system named is Cryptococcus neoformans. The data set is described as above. The data set is classed as cell-based. The conditions noted are these: Procedure III: glucose bouillon agar, 28° C, 96 hours. How it is done: as §2, §4
A further data set relates to Microsporum gypseum. The description is as above. The data set is classed as cell-based. As to conditions: Nannizzia gypsea; Procedure III: glucose bouillon agar, 28° C, 96 hours. As for the experimental part: as §2, §4
For data set [4], the system named is Trichophyton mentagrophytes. The description is as above. It counts as cell-based. The conditions noted are these: Procedure III: glucose bouillon agar, 28° C, 96 hours. How it is done: as §2, §4
The next data set has as its system Asperigillus fumigatus. The description is as above. It counts as cell-based. As to conditions: Procedure III: glucose bouillon agar, 28° C, 96 hours. How it is done: as §2, §4
Data set [5] can be described thus: Acute toxicity in mice (intravenous). The data set is classed as in vivo. As to conditions: for LD50: mouse, in vivo.
Another data set relates to Mycobacterium species. Kind of data set: Antimicrobial spectrum, minimal inhibitory concentration (Procedure II). It counts as cell-based. As to conditions: Procedure II: heart infusion agar with 1 % added glycerin, 37° C, 48 hours. As for the experimental part: as §2, §3

This note sets out measurements from patent publication US4108724A, “Method for preparing antibiotic P-2563 using Pseudomonas fluorescens” (Takeda Chemical Industries, Ltd., priority 1975, dated 1978).

Each structure is given as a SMILES string. Values after ≈ are worked out from the molar mass of the structure shown. “Also recorded” adds a separate entry of the source. Counter-ions that a name gives are not always drawn.

For `CCC(=O)N[C@H]1[C@H](O)[C@@H](O)C(OC(C(O)CN)C(N)C(O)CO)O[C@@H]1CO` (stereo partly drawn) [P-2563 (I) monohydrochloric acid salt], the “Stability: decomposition” value in “Stability against pH” was “decomposes gradually with a loss of activity under strongly basic (above pH 8) and strongly acidic (below pH 3) conditions”. In “Solubilities”, the “Solubilities: insoluble” value is “insoluble in chloroform, ethyl acetate, ether, n-hexane and petroleum ether”; the “Solubilities: readily soluble” value is “Readily soluble in water and methanol”; the “Solubilities: sparingly soluble” value was “sparingly soluble in ethanol, n-propanol, butanol and acetone”.

In general, MIC refers to the lowest concentration that inhibits growth of the organism. Read a high MIC as a less susceptible organism. Broadly, the LD50 is the dose expected to kill half of the subjects tested. On to `CCC(=O)N[C@H]1[C@H](O)[C@@H](O)C(OC(C(O)CN)C(N)C(O)CO)O[C@@H]1CO` (stereo partly drawn) [P-2563 (I)], for which the “inhibitory to bacteria of the genus Pseudomonas” value in data set [1] is listed as “particularly to bacteria of the genus Pseudomonas”. Also, the MIC against Staphylococcus aureus was determined as 50 µg/mL (≈ 126 µM); against Pseudomonas aeruginosa, 50 µg/mL (≈ 126 µM); with Klebsiella pneumoniae, 12.5 µg/mL (≈ 31.5 µM); in the data set on Bacillus subtilis, 30 µg/mL (≈ 75.5 µM); against Escherichia coli it was 30 µg/mL (≈ 75.5 µM); in the data set on Proteus mirabilis it was 200 µg/mL (≈ 503 µM). In addition, the MIC in the data set with Proteus vulgaris was 30 µg/mL (≈ 75.5 µM); in the data set with Candida albicans, above 500 µg/mL; with Cryptococcus neoformans, above 500 µg/mL; in the data set on Microsporum gypseum, above 500 µg/mL; in data set [4], above 500 µg/mL; in the data set with Asperigillus fumigatus, above 500 µg/mL. This compound showed a minimum inhibitory concentration (MIC) in the data set with Mycobacterium species of 200 µg/mL (≈ 503 µM). Further, the toxicity result was “low toxicity” in data set [2] and “extremely low in toxicity” in [5]. For the same compound, in the data set “Stability against pH”, the “Stability: decomposition” value is “decomposes gradually with a loss of activity under strongly basic (above pH 8) and strongly acidic (below pH 3) conditions”. For the same compound, in data set [3], the antimicrobial spectrum entry is “broad antimicrobial spectrum, especially against gram-positive and gram-neg ative bacteria; also recorded: inhibitory to gram-positive and gram-negative bacteria”. The “Solubilities: insoluble” value in the data set “Solubilities” is “insoluble in chloroform, ethyl acetate, ether, n-hexane and petroleum ether”. Besides, in the data set “Solubilities”, the “Solubilities: readily soluble” value was “Readily soluble in water, methanol and ethanol”. Besides, the “Solubilities: sparingly soluble” value in “Solubilities” was “sparingly soluble in n-propanol, butanol and acetone”. For the same compound, the “solubility in water (general statement)” value in the data set “Solubilities” was “water-soluble”. In addition, the LD50 in data set [5] is above 400 mg/kg.

Turning to `CC(=O)N[C@H]1[C@H](O)[C@@H](O)C(OC(C(O)CN)C(N)C(O)CO)O[C@@H]1CO` (stereo partly drawn) [P-2563 (II)], the “inhibitory to bacteria of the genus Pseudomonas” value in data set [1] is reported as “particularly to bacteria of the genus Pseudomonas”. The MIC against Staphylococcus aureus is 200 µg/mL (≈ 522 µM); in the data set with Pseudomonas aeruginosa, 300 µg/mL (≈ 782 µM); in the data set with Klebsiella pneumoniae it was 50 µg/mL (≈ 130 µM); against Bacillus subtilis it was 70 µg/mL (≈ 183 µM); against Escherichia coli, 50 µg/mL (≈ 130 µM); in the data set with Proteus mirabilis, 200 µg/mL (≈ 522 µM). The MIC against Proteus vulgaris was 100 µg/mL (≈ 261 µM); against Candida albicans, above 500 µg/mL; in the data set on Cryptococcus neoformans it was above 500 µg/mL; in the data set with Microsporum gypseum, above 500 µg/mL; in data set [4], above 500 µg/mL; in the data set with Asperigillus fumigatus it was above 500 µg/mL. The same compound gave an MIC in the data set with Mycobacterium species of 200 µg/mL (≈ 522 µM). In addition, the toxicity entry in data set [2] is listed as “low toxicity”; in data set [5] it was “extremely low in toxicity”. The “Stability: decomposition” value in the data set “Stability against pH” is “decmposes gradually with a loss of activity under strongly basic (above pH 8) and strongly acidic (below pH 3) conditions”. For the same compound, the antimicrobial spectrum entry in data set [3] is “broad antimicrobial spectrum, especially against gram-positive and gram-neg ative bacteria; also recorded: inhibitory to gram-positive and gram-negative bacteria”. In addition, in the data set “Solubilities”, the “Solubilities: insoluble” value is “insoluble in chloroform, ethyl acetate, ether, n-hexane and petroleum ether”. Besides, the “Solubilities: readily soluble” value in the data set “Solubilities” was “Readily soluble in water and methanol”. The “Solubilities: sparingly soluble” value in the data set “Solubilities” is “sparingly soluble in ethanol, n-propanol, butanol and acetone”. For the same compound, the “solubility in water (general statement)” value in “Solubilities” is “water-soluble”. Further, in [5], the LD50 is above 400 mg/kg.

With `NCC(O)C(OC1O[C@H](CO)[C@@H](N)[C@H](O)[C@H]1O)C(N)C(O)CO` (stereo partly drawn) [P-2563 (III)], in data set [2], the toxicity entry is “low toxicity”. Also, the “Stability: decomposition” value in “Stability against pH” was “decomposes gradually under strongly acidic (below pH 3) and strongly basic (above pH 13) conditions”. The antimicrobial spectrum result in data set [3] was “broad antimicrobial spectrum, especially against gram-positive and gram-neg ative bacteria”. For the same compound, in the data set “Solubilities”, the “Solubilities: insoluble” value was “insoluble in chloroform, ethylacetate, ether, n-hexane and petroleum ether”; the “Solubilities: readily soluble” value is “Readily soluble in water and methanol”; the “Solubilities: sparingly soluble” value was “sparingly soluble in ethanol, n-propanol, butanol and acetone”; the “solubility in water (general statement)” value is listed as “water-soluble”.
